Data on two molecules can be found in paper PMC11249637, “Interaction of the Atypical Tetracyclines Chelocardin and Amidochelocardin with Renal Drug Transporters” (ACS Pharmacology & Translational Science, 2024).

One test has as its target T1, hOAT4 (Homo sapiens, UniProt Q9NSA0).
T1 construct: expressed in transfected cells; host or cells: HEK293
T1 sequence (Q9NSA0 1-550): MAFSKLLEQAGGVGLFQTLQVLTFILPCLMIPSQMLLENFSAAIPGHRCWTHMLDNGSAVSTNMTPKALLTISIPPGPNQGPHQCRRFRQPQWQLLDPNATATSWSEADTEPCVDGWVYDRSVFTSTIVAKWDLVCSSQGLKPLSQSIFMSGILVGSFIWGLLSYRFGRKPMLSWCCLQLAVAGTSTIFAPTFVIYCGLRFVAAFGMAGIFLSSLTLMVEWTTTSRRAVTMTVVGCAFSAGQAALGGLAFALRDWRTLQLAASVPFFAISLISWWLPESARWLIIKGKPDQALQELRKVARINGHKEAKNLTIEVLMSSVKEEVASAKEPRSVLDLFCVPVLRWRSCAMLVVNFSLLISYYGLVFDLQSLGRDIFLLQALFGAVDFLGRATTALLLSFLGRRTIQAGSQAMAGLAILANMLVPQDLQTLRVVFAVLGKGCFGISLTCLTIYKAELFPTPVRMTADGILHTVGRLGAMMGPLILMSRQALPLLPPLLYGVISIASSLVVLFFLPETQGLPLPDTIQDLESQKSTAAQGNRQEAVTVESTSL
The test is described as follows: Two-point inhibition of hOAT4-mediated ES uptake in transfected HEK293 cells. In kind it is in vitro ADME. To be noted: ES 1 μM, 1 min; for inhibitory effect on hOAT4 (in words): 1 and 10 μM; for enhanced uptake of substrate by hOAT4: at 10 μM. On the procedure:
(§1) Well-characterized mOct1-, mOct2-, mOat1-, mOat2-, mOat3-, mMate1-, hOAT1-, hOAT3-, hOAT4-, hMRP2-, mMdr1a- and mMdr1b-transfected HEK293 cells and the respective vector-transfected control HEK293 cells were used.[42],[51],[52] All HEK293 cells (transporter-transfected and vector-transfected) were cultured in DMEM (Sigma, high glucose, 10% FBS, 1% penicillin (10,000 Units/mL)/streptomycin (10 mg/mL)) at 37°C under 5% CO2 in humidified atmosphere. The cells were routinely checked for the absence of mycoplasma infection. For the preparation of HEK293 cell monolayers, 24-well plates were pretreated with a poly-D-lysine hydrobromide solution (0.1 mg/mL). Each well was coated with 0.5 mL of poly-D-lysine solution and incubated for at least 15 min. After complete removal of the solution, the plates were dried for 30 min. Cells (vector-transfected and transporter-transfected) treated with trypsin were immediately seeded into 24-well plates and cultured for 3 days before being used for transport experiments.
For the uptake assay, the growth medium was aspirated, and each well was rinsed three times with 0.5 mL of incubation buffer (HBSS supplemented with 20 mM HEPES, pH 7.4) and incubated for 20 min at 37 °C. Afterward, buffers were removed, and 200 μL of the incubation buffer containing a radiolabeled substrate and the nonlabeled CHD and CDCHD or reference inhibitor (Table S1), respectively, was added to each well and incubated at 37 °C for designated time intervals. After incubation, uptake was terminated by aspirating the reaction mixture and washing the cells three times with 0.4 mL of ice-cold incubation buffer. Cells were solubilized with 0.6 mL of 1N NaOH overnight and transferred into scintillation vials. ^3H and ^14C contents were measured after the addition of 2.5 mL of scintillator in a liquid scintillation counter.
The cellular protein amount was determined in parallel for each cell line (vector- and transporter-transfected) from six wells in a different 24-well reference plate using the Bradford method. For the two-point inhibition assays, each, CHD and CDCHD, was added in two single concentrations of 1 and 10 μM to characterize their inhibitory potential. Incubation was terminated after 1 min. All experiments were conducted in triplicate for every transporter.
The ES incubation buffer contained ^3H-ES and nonlabeled ES in a final concentration of 1 μM. Inhibition of hOAT4-mediated ES uptake by 10 μM BSP was performed as a control experiment.
(§2) The inhibitory effect (I(%)) was calculated according to the formula: [drawing 5] […]

The subject of another test is uropathogenic E. coli. More on the design: method as in PMID 38047701. To be noted: cited from earlier work.
For the next test, the target named is T2, mOat2 (Mus musculus, UniProt Q91WU2).
T2 construct: expressed in transfected cells; host or cells: HEK293
T2 sequence (Q91WU2 1-540): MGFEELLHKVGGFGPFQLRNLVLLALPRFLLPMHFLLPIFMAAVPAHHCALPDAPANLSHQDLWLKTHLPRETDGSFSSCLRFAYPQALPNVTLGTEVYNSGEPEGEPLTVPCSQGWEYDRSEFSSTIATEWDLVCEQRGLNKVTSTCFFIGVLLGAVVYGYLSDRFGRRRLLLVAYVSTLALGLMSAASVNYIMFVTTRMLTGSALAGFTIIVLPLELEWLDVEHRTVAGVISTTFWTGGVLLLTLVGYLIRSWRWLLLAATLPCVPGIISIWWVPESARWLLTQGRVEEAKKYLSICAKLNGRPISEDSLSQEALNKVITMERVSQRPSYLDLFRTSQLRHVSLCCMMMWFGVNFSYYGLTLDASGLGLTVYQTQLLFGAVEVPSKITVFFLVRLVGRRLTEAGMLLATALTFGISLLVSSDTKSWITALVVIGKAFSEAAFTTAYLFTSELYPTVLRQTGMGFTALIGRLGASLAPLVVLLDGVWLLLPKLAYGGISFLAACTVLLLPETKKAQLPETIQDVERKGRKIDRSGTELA
In words: Two-point inhibition of mOat2-mediated cGMP uptake in transfected HEK293 cells. The test is classed as in vitro ADME. Particulars: cGMP 10 μM, 5 min, read-out: inhibitory effect on mOat2. The method, then:
as §1, with “Each well was coated with 0.5 mL of poly-D-lysine solution and incubated for at least 15 min. After complete removal of the solution, the plates were dried for 30 min. Cells (vector-transfected and transporter-transfected) treated with trypsin were immediately seeded into 24-well plates and cultured for 3 days before being used for transport experiments.” left out
For the uptake assay, the growth medium was aspirated, and each well was rinsed three times with 0.5 mL of incubation buffer (HBSS supplemented with 20 mM HEPES, pH 7.4) and incubated for 20 min at 37 °C. […] Cells were solubilized with 0.6 mL of 1N NaOH overnight and transferred into scintillation vials. ^3H and ^14C contents were measured after the addition of 2.5 mL of scintillator in a liquid scintillation counter.
The cellular protein amount was determined in parallel for each cell line (vector- and transporter-transfected) from six wells in a different 24-well reference plate using the Bradford method. […]
as §2

For the molecule `Cc1ccc2c(C)c3c(c(O)c2c1O)C(=O)[C@@]1(O)C(=O)C(C(N)=O)=C(O)[C@@H](N)[C@H]1C3` [CDCHD, amidochelocardin], at hOAT4, the “inhibitory effect on hOAT4 (in words)” value is “No inhibitory effect” and the “enhanced uptake of substrate by hOAT4” value was “up to 40%”. For the same molecule, in the test on uropathogenic E. coli, the “effect in ascending urinary tract infection model (in words)” value is reported as “pronounced effects”. Besides, the inhibition at 10 µM at mOat2 was roughly 100%.

In the case of `CC(=O)C1=C(O)[C@@H](N)[C@H]2Cc3c(c(O)c4c(O)c(C)ccc4c3C)C(=O)[C@@]2(O)C1=O` [CHD, chelocardin], on hOAT4, the “inhibitory effect on hOAT4 (in words)” value is given as “No inhibitory effect” and the “enhanced uptake of substrate by hOAT4” value is “up to 40%”. Moreover, the “effect in ascending urinary tract infection model (in words)” value with uropathogenic E. coli was “pronounced effects”. Further, the inhibition at 10 µM on mOat2 is roughly 100%.
